Laboratory results from US20250144067A1, “PERSONALIZED STARVATION THERAPY FOR CANCER” (Faeth Therapeutics, Inc., priority 2021, published 2025).
Counter-ions that a name gives are not always drawn. Peptide text beside a SMILES is read from it.

Legend:
[1] = system: NCI-H292 lung cancer cells; assay: FDA drug screening, complete media vs cholesterol-free media without statin (TABLE 1); type: cell-based, human
[2] = system: NCI-H292 lung cancer cells; assay: FDA drug screening, complete media vs cholesterol-free media with simvastatin (TABLE 2); type: cell-based, human; conditions: for Cholesterol-free media + simvastatin (0.04 μM) / Complete Media: NCI-H292 cells
[3] = Complete minus Cholesterol-free, >0 enhanced anti-cancer activity, about 0 neutral, <0 antagonist
[4] = NCI-H292 cells, cholesterol-free media without statin, FDA drug library screen
[5] = NCI-H292 cells, complete media, FDA drug library screen
[6] = cholesterol-free media with simvastatin 0.04 μM, FDA drug library screen (TABLE 2)
[7] = complete media, FDA drug library screen (TABLE 2)
[8] = complete media minus cholesterol-free media + simvastatin (0.04 μM), >0 enhanced anti-cancer activity, about 0 neutral, <0 antagonist
[9] = NCI-H292 cells, cholesterol-free media without statin
[10] = cholesterol-free media with simvastatin 0.04 μM, cell growth value in FDA drug screen
[11] = complete media, cell growth value in FDA drug screen
[12] = complete media minus cholesterol-free media + simvastatin, >0 enhanced anti-cancer activity, about 0 neutral, <0 antagonist
[13] = FDA library drug in cholesterol-free media with simvastatin 0.04 μM
[14] = FDA library drug in complete media
[15] = complete media vs cholesterol-free media + simvastatin (0.04 μM), >0 enhanced anti-cancer activity, about 0 neutral, <0 antagonist
[16] = complete vs cholesterol-free media, >0 enhanced anti-cancer activity, about 0 neutral, <0 antagonist
[17] = drug in cholesterol-free media with simvastatin 0.04 μM
[18] = FDA drug library screen, cholesterol-free media with simvastatin 0.04 μM
[19] = complete vs cholesterol-free media, greater than 0 enhanced anti-cancer activity, about 0 neutral, below 0 antagonists
[20] = Complete minus Cholesterol-free, greater than 0 enhanced anti-cancer activity, about 0 neutral, below 0 antagonists
[21] = NCI-H292 cells in complete media
[22] = FDA drug library screen, complete media
[23] = Complete minus Cholesterol-free, […]
[24] = NCI-H292 cells in cholesterol-free media without statin

Cc1cn([C@@H]2C[C@@H](O)[C@H](CO)O2)c(=O)[nH]c1=O [Telbivudine]
Difference [1, 3]: −0.03
Cholesterol-free [1, 4]: 0.8613
Complete [1, 5]: 0.8275
Cholesterol-free media + simvastatin (0.04 μM) [2, 6]: 0.8748
Complete Media [2, 7]: 0.8605
Difference [2, 8]: −0.01

C=CC[C@@H]1/C=C(\C)C[C@H](C)C[C@H](OC)[C@H]2O[C@@](O)(C(=O)C(=O)N3CCCC[C@H]3C(=O)O[C@H](/C(C)=C/[C@@H]3CC[C@@H](O)[C@H](OC)C3)[C@H](C)[C@@H](O)CC1=O)[C@H](C)C[C@@H]2OC [Tacrolimus (monohydrate)]
Difference [1, 3]: −0.26
Cholesterol-free [1, 9]: 1.012
Complete ([1]; NCI-H292 cells, complete media): 0.7533
Cholesterol-free media + simvastatin (0.04 μM) [2, 10]: 1.131
Complete Media [2, 11]: 1.225
Difference [2, 12]: 0.09

O=C1Nc2ccccc2/C1=C1/Nc2ccccc2C1=O [Indirubin]
Difference [1, 3]: −0.04
Cholesterol-free [1, 4]: 0.7727
Complete [1, 5]: 0.7337
Cholesterol-free media + simvastatin (0.04 μM) [2, 13]: 0.8483
Complete Media [2, 14]: 0.5782
Difference [2, 15]: −0.27

CC(=O)O[C@H]1CC[C@@]2(C)C(=CC[C@@H]3[C@@H]2CC[C@]2(C)C(c4cccnc4)=CC[C@@H]32)C1 [Abiraterone acetate]
Cholesterol-free [1, 4]: 0.5232
Complete [1, 5]: 1.307
Difference [1, 16]: 0.78
Cholesterol-free media + simvastatin (0.04 μM) [2, 13]: 1.209
Complete Media [2, 14]: 0.9
Difference [2, 15]: −0.31

COc1c(C)c2c(c(O)c1C/C=C(\C)CCC(=O)O)C(=O)OC2 [Mycophenolic acid]
Difference [1, 3]: −0.06
Cholesterol-free [1, 4]: 0.346
Complete [1, 5]: 0.2837
Cholesterol-free media + simvastatin (0.04 μM) [2, 17]: 0.743
Complete Media ([2]; drug in complete media): 0.5199
Difference [2, 15]: −0.22

C=C1CC[C@@H]2[C@](C)(CO)[C@H](O)CC[C@@]2(C)[C@@H]1C/C=C1/C(=O)OC[C@H]1O [Andrographolide]
Cholesterol-free [1, 4]: 0.8912
Complete [1, 5]: 0.9868
Difference [1, 16]: 0.10
Cholesterol-free media + simvastatin (0.04 μM) [2, 18]: 1.859
Difference [2, 8]: −0.94

CN(C)[C@@H]1C(O)=C(C(N)=O)C(=O)[C@@]2(O)C(O)=C3C(=O)c4c(O)cccc4[C@@](C)(O)[C@H]3[C@H](O)[C@@H]12 [Oxytetracycline]
Cholesterol-free [1, 4]: 0.9301
Complete [1, 5]: 1.086
Difference [1, 16]: 0.16
Cholesterol-free media + simvastatin (0.04 μM) [2, 13]: 2.284
Complete Media [2, 14]: 1.447
Difference [2, 15]: −0.84

N[C@H](CS)C(=O)O [D-Cysteine]
Cholesterol-free [1, 9]: 1.1
Complete ([1]; NCI-H292 cells, complete media): 0.7316
Difference [1, 19]: −0.37
Cholesterol-free media + simvastatin (0.04 μM) [2, 17]: 1.145
Complete Media ([2]; drug in complete media): 0.9078
Difference [2, 15]: −0.24

CC(C)(C)NCC(O)c1ccccc1Cl (stereo not shown) [Tulobuterol (hydrochloride)]
Difference [1, 20]: −0.62
Complete [1, 21]: 0.9988
Cholesterol-free media + simvastatin (0.04 μM) [2, 18]: 1.041
Complete Media [2, 22]: 1.605
Difference [2, 12]: 0.56

Ribociclib succinate
Difference [1, 3]: −0.23
Cholesterol-free [1, 9]: 0.9857
Complete ([1]; NCI-H292 cells, complete media): 0.7555
Cholesterol-free media + simvastatin (0.04 μM) [2, 6]: 0.606
Complete Media [2, 7]: 0.6094
Difference [2, 8]: 0.00

COc1cc(S(=O)(=O)[O-])ccc1O.[K+] [Sulfogaiacol]
Difference [1, 23]: −0.01
Cholesterol-free [1, 4]: 0.8896
Complete [1, 5]: 0.8811
Cholesterol-free media + simvastatin (0.04 μM) [2, 6]: 0.9781
Complete Media [2, 7]: 0.9488
Difference ([2]; complete media minus cholesterol-free media + simvastatin (0.04 μM), […]): −0.03

CCC1=C(C)CN(C(=O)NCCc2ccc(S(=O)(=O)NC(=O)N[C@H]3CC[C@H](C)CC3)cc2)C1=O [Glimepiride]
Cholesterol-free [1, 9]: 1.246
Complete ([1]; NCI-H292 cells, complete media): 0.8316
Difference [1, 19]: −0.41
Cholesterol-free media + simvastatin (0.04 μM) [2, 17]: 0.9904
Complete Media ([2]; drug in complete media): 0.7847
Difference [2, 15]: −0.21

FC(F)(F)C(F)(F)C(F)(F)C(F)(F)C(F)(F)C(F)(F)C(F)(F)C(F)(F)Br [Perflubron]
Difference [1, 20]: −0.50
Cholesterol-free [1, 24]: 1.905
Complete [1, 21]: 1.408
Cholesterol-free media + simvastatin (0.04 μM) [2, 18]: 0.901
Complete Media [2, 22]: 1.248
Difference [2, 12]: 0.35

CCCNC(C)C(=O)Nc1ccccc1C (stereo not shown) [Prilocaine]
Difference [1, 20]: −0.49
Cholesterol-free [1, 24]: 1.366
Complete [1, 21]: 0.8796
Cholesterol-free media + simvastatin (0.04 μM) [2, 17]: 1.231
Complete Media ([2]; drug in complete media): 0.9727
Difference [2, 15]: −0.26

Clc1ccc(C(Cn2ccnc2)OCc2ccsc2Cl)c(Cl)c1 (stereo not shown) [Tioconazole]
Difference [1, 3]: −0.27
Cholesterol-free [1, 9]: 1.207
Complete ([1]; NCI-H292 cells, complete media): 0.9413
Cholesterol-free media + simvastatin (0.04 μM) [2, 18]: 0.669
Complete Media [2, 22]: 0.9672
Difference [2, 12]: 0.30

CC1=C(/C=C/C(C)=C/C=C/C(C)=C/C(=O)O)C(C)(C)CCC1 [Retinoic acid]
Difference [1, 20]: −0.66
Cholesterol-free [1, 24]: 1.248
Complete [1, 21]: 0.5841
Cholesterol-free media + simvastatin (0.04 μM) [2, 18]: 0.9194
Complete Media [2, 22]: 1.253
Difference [2, 12]: 0.33

CN(C)CCC=C1c2ccccc2C(C)(C)c2ccccc21 [Melitracen (hydrochloride)]
Difference ([1]; Complete minus Cholesterol-free, greater than 0 enhanced anti-cancer activity, about 0 neutral, below 0 antagonist): −0.10
Cholesterol-free ([1]; NCI-H292 cells, FDA drug library screen, cholesterol-free media without statin): 1.283
Complete ([1]; NCI-H292 cells, FDA drug library screen, complete media): 1.187
Cholesterol-free media + simvastatin (0.04 μM) [2, 18]: 1.24
Complete Media [2, 22]: 1.495
Difference [2, 12]: 0.26

Cc1onc(-c2c(Cl)cccc2Cl)c1C(=O)N[C@@H]1C(=O)N2[C@@H]1SC(C)(C)[C@@H]2C(=O)O [Dicloxacillin (Sodium hydrate)]
Difference [1, 3]: 0.01
Cholesterol-free [1, 4]: 0.8462
Complete [1, 5]: 0.855
Cholesterol-free media + simvastatin (0.04 μM) [2, 18]: 1.145
Complete Media [2, 22]: 1.008
Difference [2, 15]: −0.14

CC(=O)NO [Acetohydroxamic acid]
Difference [1, 3]: −0.28
Cholesterol-free [1, 9]: 1.174
Complete ([1]; NCI-H292 cells, complete media): 0.8978
Cholesterol-free media + simvastatin (0.04 μM) [2, 10]: 0.8799
Complete Media [2, 11]: 0.8992
Difference [2, 12]: 0.02

Prednisolone (disodium phosphate)
Cholesterol-free [1, 9]: 1.087
Complete ([1]; NCI-H292 cells, complete media): 0.6422
Difference [1, 19]: −0.44
Cholesterol-free media + simvastatin (0.04 μM) [2, 18]: 0.4379
Complete Media [2, 22]: 0.7375
Difference [2, 12]: 0.30

Nc1ccc(S(=O)(=O)Nc2nccs2)cc1 [Sulfathiazole (sodium)]
Difference [1, 3]: −0.22
Cholesterol-free [1, 9]: 1.264
Complete ([1]; NCI-H292 cells, complete media): 1.047
Cholesterol-free media + simvastatin (0.04 μM) [2, 13]: 1.852
Complete Media [2, 14]: 1.04
Difference [2, 15]: −0.81

N=C(N)NCCCC[C@@H]1NC(=O)CCSSC[C@@H](C(N)=O)NC(=O)[C@@H]2CCCN2C(=O)[C@H](Cc2c[nH]c3ccccc23)NC(=O)[C@H](CC(=O)O)NC(=O)CNC1=O [Eptifibatide] (HELM PEPTIDE1{[O=C(CCS[*:3])[*:2]].[N=C(N)NCCCC[C@H](N[*:1])C(=O)[*:2]].G.D.W.P.C.[am]}$PEPTIDE1,PEPTIDE1,1:R3-7:R3$$$V2.0)
Difference [1, 23]: −1.01
Cholesterol-free [1, 24]: 1.974
Complete [1, 21]: 0.9607
Cholesterol-free media + simvastatin (0.04 μM) [2, 18]: 0.8438
Complete Media [2, 22]: 0.9929
Difference ([2]; complete media minus cholesterol-free media + simvastatin, […]): 0.15
